Test results published in patent US20080163390A1, “METHODS AND COMPOSITIONS FOR PROVIDING SA-INDEPENDENT PATHOGEN RESISTANCE IN PLANTS” (UNIVERSITY OF KENTUCKY RESEARCH FOUNDATION, priority 2007, published 2008).

What was measured:
[1] = test system: Turnip Crinkle Virus (TCV); experiment: TCV replication and systemic spread after 18:1 infiltration of leaves; assay type: in vivo, Arabidopsis
Description: (A) RT-PCR analyses showing basal level expression of HRT in HRT ssi2 act1 and HRT ssi2 gly1 plants. The level of β-tubulin was used as an internal control to normalize the amount of cDNA template. The 18:1 levels are a mean of six independent replicates. (B) Systemic spread of TCV to uninoculated tissue in TCV-inoculated plants. RNA was extracted from the uninoculated tissues at 18 dpi and analyzed for the presence of the viral transcripts (TCV-U). Ethidium bromide staining of rRNA was used as a loading control. (C) Typical morphological phenotypes of mock-and TCV-inoculated HRT ssi2 act1 and HRT ssi2 gly1 plants. […] Plants were photographed at 8 dpi. (D) Effect of 18:1 infiltrations on viral replication in the inoculated leaf. Oleic acid (O, 1 mM) or water (W) was injected 24 h before or after (last two lanes) TCV inoculation and the samples were harvested 3 days post inoculation (dpi).
(§1) Pathogen inoculations. Transcripts synthesized in vitro from a cloned cDNA of TCV using T7 RNA polymerase were used for viral infections. For inoculations, the viral transcript was suspended at a concentration of 0.05 μg/μl in inoculation buffer, and the inoculation was performed. After viral inoculations, the plants were transferred to a Conviron MTR30 reach-in chamber maintained at 22° C., 65% relative humidity and 14 hour photoperiod. Inoculations with Pseudomonas syringae were conducted.
Fatty acid analysis and oleic acid infiltration. Fatty acid analysis was carried out using gas chromatorgraphy. Oleic acid (Sigma) was dissolved in water and injected into leaves using a needle-less syringe. To determine the 18:1 concentration required to elevate the leaf 18:1 content in ssi2 plants to wild-type levels, 50 μm to 10 mM were injected into ssi2 leaves followed by fatty acid profiling. A concentration of 500 μm to 1 mM was considered optimal, with similar results being obtained upon injection of either of these concentrations.
RNA extraction, RT-PCR and northern analyses. Small-scale extraction of RNA from one or two leaves was performed in the TRIzol reagent (Invitrogen, Gaihersburg, Md.) following the manufacturer's instructions. RNA quality and concentration were determined by gel electrophoresis and determination of A260. Northern blot analysis and synthesis of random primed probes for PR-1 were carried out. Reverse transcription (RT) and first strand cDNA synthesis was carried out using Superscript II (Invitrogen). Two-to-three independent RNA preparations were used for RT-PCR and each of these were analyzed at least twice by RT-PCR. The RT-PCR was carried out for 35 cycles in order to determine absolute levels of transcripts. The number of amplification cycles was reduced to 22-25 in order to evaluate and quantify any differences among transcript levels before they reached saturation. […]

18:1 content = experiment: Fatty acid analysis of leaf 18:1 content (gas chromatography); assay type: in vivo, Arabidopsis
Description: FIG. 6A-B depicts an abbreviated scheme for lipid biosynthesis and in plant oleic acid levels after 18:1 infiltrations. (A) De novo fatty acid (FA) synthesis occurs exclusively in the plastids of all plant cells and leads to the synthesis of palmitic acid (16:0)-acyl carrier protein (ACP) and oleic acid (18:1)-ACP. These FAs enter glycerolipid synthesis either via the prokaryotic pathway in the inner envelope of chloroplasts or are exported out of plastids as CoA thioesters to enter the eukaryotic glycerolipid synthesis pathway. Symbols for various components are: CoA, coenzyme A; Lyso-PA, acyl-G3P; PA, phosphatidic acid; PG, phosphatidylglycerol; MGDG, monogalactosyldiacylglycerol; DGDG, digalactosyldiacylglycerol; SL, sulfolipid; DAG, diacylglycerol; DHAP, dihydroxyacetone phosphate. (B) In planta oleic acid levels after 18:1 infiltrations. The HRT ssi2 sid2 leaves were infiltrated with water or 1 mM oleic acid and the fatty acid levels were determined 24 h post treatment from treated and untreated leaves. The 18:1 levels from the untreated wild type plant (HRT) were used as a control.
Fatty acid analysis and oleic acid infiltration. Fatty acid analysis was carried out using gas chromatorgraphy. Oleic acid (Sigma) was dissolved in water and injected into leaves using a needle-less syringe. […]

[2] = test system: Turnip Crinkle Virus (TCV); experiment: TCV resistance after exogenous application of SA or glycerol; assay type: in vivo, Arabidopsis; conditions: for resistance to TCV (percentage of resistant plants): inoculated 48 h post-treatment, analyzed 3 weeks post-inoculation
Description: (§2) (A) PR-1 gene expression and 18:1 content in water (W)- and glycerol (G)-treated plants. Ethidium bromide staining of rRNA was used as a loading control. The 18:1 levels are a mean of six independent replicates. (B) RT-PCR analyses showing expression of HRT and SSI4 genes in water- and glycerol-treated plants shown in A. The level of β-tubulin was used as an internal control to normalize the amount of cDNA template. (C) Visible HR formation in water (W)- and glycerol (G)-treated HRT sid2, HRT pad4 and HRT act1 plants at 3 dpi. (D) Percentage TCV resistant plants obtained after exogenous application of water, SA or glycerol. Wild type (HRT or hrt), HRT sid2, HRT pad4 and HRT act1 plants were inoculated 48 h post-treatment and resistance was analyzed 3-weeks post-inoculation. The number of plants tested are indicated above each bar. Asterisk indicates 100% susceptibility. (E) Systemic spread of TCV to uninoculated tissue in TCV-inoculated plants. RNA was extracted from the uninoculated tissues at 18 dpi and analyzed for the presence of the viral transcripts (TCV-U). Ethidium bromide staining of rRNA was used as a loading control. (F) Typical morphological phenotypes of TCV-inoculated plants that were sprayed either with water (W) or glycerol (G) prior to inoculation. Plants were photographed at 18 dpi.
as §1
(§3) SA and glycerol treatments. SA and glycerol treatments were carried out by spraying 500 μM and 50 mM solutions, respectively, prepared in sterile water.

[3] = test system: Turnip Crinkle Virus (TCV); conditions: exogenous SA prior to dark-treatment of Di-17 plants; cited from earlier work
PR-1 = PR-1 gene expression (northern analysis) in glycerol-treated plants; assay type: in vivo, Arabidopsis; conditions: exogenous glycerol
Description: as §2, with “Asterisk indicates 100% susceptibility. (E) Systemic spread of TCV to uninoculated tissue in TCV-inoculated plants.” left out, “Ethidium bromide staining of rRNA was used as a loading control. (F) Typical morphological phenotypes of TCV-inoculated plants that were sprayed either with water (W) or glycerol (G) prior to inoculation. Plants were photographed at 18 dpi.” left out
(§4) RNA extraction, RT-PCR and northern analyses. […] RNA quality and concentration were determined by gel electrophoresis and determination of A260. […] Two-to-three independent RNA preparations were used for RT-PCR and each of these were analyzed at least twice by RT-PCR. […] The number of amplification cycles was reduced to 22-25 in order to evaluate and quantify any differences among transcript levels before they reached saturation.

HRT = HRT transcript levels (RT-PCR) in glycerol-treated plants; assay type: in vivo, Arabidopsis; conditions: exogenous glycerol
Description: as §2, with “Asterisk indicates 100% susceptibility. (E) Systemic spread of TCV to uninoculated tissue in TCV-inoculated plants.” left out, “Ethidium bromide staining of rRNA was used as a loading control. (F) Typical morphological phenotypes of TCV-inoculated plants that were sprayed either with water (W) or glycerol (G) prior to inoculation. Plants were photographed at 18 dpi.” left out
as §4

[4] = test system: Turnip Crinkle Virus (TCV); experiment: Visible HR formation to TCV in glycerol-treated plants; assay type: in vivo, Arabidopsis; conditions: glycerol-treated wild-type, HRT sid2 and HRT pad4 plants; 3 dpi
Description: as §2
Pathogen inoculations. […]

SA levels = SA levels after glycerol application; assay type: in vivo, Arabidopsis; conditions: dependent on functional SID2 protein
Procedure: as §3
Exogenous application of glycerol confers resistance to TCV in an SA-independent but ACT1-dependent manner. Additional evidence supporting a role for 18:1 in regulating HRT gene expression was obtained by glycerol treatment of several genotypes. […] This is because the act1 plants are blocked in the step leading to the acylation of glycerol-3-phosphate with 18:1. […] Since the upregulation of HRT abolishes visible HR to TCV, the development of HR in various glycerol-treated plants was monitored. […] Thus, although the SA-mediated induction of HRT is dependent on PAD4, 18:1-mediated induction of HRT is independent of PAD4.

SMILES	TCV replication in inoculated leaf ([1]; 18:1 infiltrated 24 h after TCV inoculation)	increase in amount of TCV transcript in inoculated leaf ([1]; HRT ssi2 sid2 leaves, 18:1 infiltrated before TCV inoculation)	systemic spread of the virus ([1]; HRT ssi2 sid2 plants, 18:1 injections)	TCV replication (TCV transcript) in the inoculated leaves ([1]; wild-type Di-17 or Col-0 leaves, 18:1 (1 mM) vs water injected 24 h before TCV inoculation, 3 dpi)	18:1 levels after exogenous application of 18:1 (18:1 content; HRT ssi2 sid2, site of infiltration vs untreated leaves, 24 h post treatment)	resistance to TCV (percentage of resistant plants) ([2]; HRT act1 plants)	resistance to TCV (percentage of resistant plants) ([2]; HRT pad4 plants)	dark-triggered susceptibility to TCV [3]	resistance to TCV (percentage of resistant plants) ([2]; Col-0 (hrt) plants)	more TCV-resistant plants in comparison to SA pretreatment ([2]; HRT sid2 plants, glycerol vs SA pretreatment) [%]	resistance to TCV (percentage of resistant plants) ([2]; HRT sid2 plants)	18:1 content (18:1 content; exogenous glycerol (50 mM spray), wild-type, HRT sid2 and HRT pad4 plants)	PR-1 gene expression (PR-1; HRT sid2 plants)	PR-1 gene expression (PR-1; wild-type and HRT pad4 plants)	HRT transcript levels (HRT; HRT act1 plants)	HRT transcript levels (HRT; wild-type, HRT sid2 and HRT pad4 plants)	visible HR to TCV [4]	SA levels (SA levels)
CCCCCCCC/C=C\CCCCCCCC(=O)O [18:1, oleic acid]	remained unaffected	6-8 fold	did not allow systemic spread of the virus	did not appear to alter TCV replication	only normalized 18:1 levels locally													
O=C(O)c1ccccc1O [SA, Salicylic acid, reference compound]						substantial increase	only a marginal increase	prevents dark-triggered susceptibility										
OCC(O)CO [glycerol]						not in HRT act1 or Col-0 plants	significantly enhanced resistance		not in HRT act1 or Col-0 plants	~30	enhanced resistance to TCV	lowered 18:1 content	failed to induce PR-1 gene expression	upregulation of PR-1 gene expression	not in HRT act1	induced HRT transcript levels	developed no visible HR	induced high levels of SA
